{"source": "paper PMC6323428", "about": "“Elucidation of the Intestinal Absorption Mechanism of Loganin in the Human Intestinal Caco-2 Cell Model” (Evidence-based Complementary and Alternative Medicine : eCAM, 2018)", "key": {"MRPs": {"test_system": "MRPs", "assay": "Loganin transport across Caco-2 monolayers with MRPs inhibitor MK 571", "type": "in vitro ADME, human", "parameters": "key to Modulatory effect: +: Indicates that the inhibitor has significant effect on the loganin transport", "description": "(§1) Before the experiments, the human intestinal Caco-2 cell monolayers were washed twice with HBSS medium (pH 7.4). The transport experiments were conducted by adding the drug solutions (containing 1% DMSO) to either the apical (AP, 0.5 mL) or basolateral side (BL, 1.0 mL), while the receiving chamber contained the corresponding volume of blank HBSS medium. The monolayers were incubated at 37°C, and 50 μL samples were taken at 15, 30, 45, 60, 90, and 120 min from the acceptor compartment, and the volume was then immediately replaced with50 μL of fresh, prewarmed blank HBSS. TEER measurements for assessing the membrane integrity took place before and after the experiment. The samples were frozen immediately and stored below −80°C before analysis.\n(§2) Several efflux and influx transporters were investigated for their effects on the transport flux of loganin. One hundred μM verapamil was added to evaluate the selectivity of P-glycoprotein (P-gp); inhibiting the efflux by multidrug resistance-associated proteins (MRPs) was undertaken by adding 100μM MK571, 50μM benzbromarone, and 200μM indomethacin [21–23]; 25 μM apigenin was used to investigate breast cancer resistance protein (BCRP); 50 μM sodium vanadate and cimetidine were used as Na^+/K^+pump and […] inhibitors.\n(§3) UPLC-MS/MS data acquisition was performed using Analyst 1.5.2 and MultiQuant 2.1.1 software (Applied Biosystems). The data were analyzed by SPSS Software. The apparent permeability coefficient (Papp) was calculated according to Papp = (dQ/dt)/(A·C0)\n(§4) where dQ/dt is the steady-state flux (nmol/s), A is the surface area of the insert (cm^2); C0 is the initial concentration. The efflux ratio (P) was determined by calculating the ratio of PappBA versus PappAB as in(1) P=PappBA/PappAB Statistical analysis was performed with analysis of variance (ANOVA) after confirmation of normal distributions."}, "MRP2 [1]": {"target": "T1, MRP2 (Homo sapiens, UniProt Q92887)", "T1 construct": "MRP2 and MRP3 were the main apically and basolaterally localized MRPs of the Caco-2 cells; endogenous in cells; host or cells: Caco-2 monolayers", "T1 sequence (Q92887 whole entry)": "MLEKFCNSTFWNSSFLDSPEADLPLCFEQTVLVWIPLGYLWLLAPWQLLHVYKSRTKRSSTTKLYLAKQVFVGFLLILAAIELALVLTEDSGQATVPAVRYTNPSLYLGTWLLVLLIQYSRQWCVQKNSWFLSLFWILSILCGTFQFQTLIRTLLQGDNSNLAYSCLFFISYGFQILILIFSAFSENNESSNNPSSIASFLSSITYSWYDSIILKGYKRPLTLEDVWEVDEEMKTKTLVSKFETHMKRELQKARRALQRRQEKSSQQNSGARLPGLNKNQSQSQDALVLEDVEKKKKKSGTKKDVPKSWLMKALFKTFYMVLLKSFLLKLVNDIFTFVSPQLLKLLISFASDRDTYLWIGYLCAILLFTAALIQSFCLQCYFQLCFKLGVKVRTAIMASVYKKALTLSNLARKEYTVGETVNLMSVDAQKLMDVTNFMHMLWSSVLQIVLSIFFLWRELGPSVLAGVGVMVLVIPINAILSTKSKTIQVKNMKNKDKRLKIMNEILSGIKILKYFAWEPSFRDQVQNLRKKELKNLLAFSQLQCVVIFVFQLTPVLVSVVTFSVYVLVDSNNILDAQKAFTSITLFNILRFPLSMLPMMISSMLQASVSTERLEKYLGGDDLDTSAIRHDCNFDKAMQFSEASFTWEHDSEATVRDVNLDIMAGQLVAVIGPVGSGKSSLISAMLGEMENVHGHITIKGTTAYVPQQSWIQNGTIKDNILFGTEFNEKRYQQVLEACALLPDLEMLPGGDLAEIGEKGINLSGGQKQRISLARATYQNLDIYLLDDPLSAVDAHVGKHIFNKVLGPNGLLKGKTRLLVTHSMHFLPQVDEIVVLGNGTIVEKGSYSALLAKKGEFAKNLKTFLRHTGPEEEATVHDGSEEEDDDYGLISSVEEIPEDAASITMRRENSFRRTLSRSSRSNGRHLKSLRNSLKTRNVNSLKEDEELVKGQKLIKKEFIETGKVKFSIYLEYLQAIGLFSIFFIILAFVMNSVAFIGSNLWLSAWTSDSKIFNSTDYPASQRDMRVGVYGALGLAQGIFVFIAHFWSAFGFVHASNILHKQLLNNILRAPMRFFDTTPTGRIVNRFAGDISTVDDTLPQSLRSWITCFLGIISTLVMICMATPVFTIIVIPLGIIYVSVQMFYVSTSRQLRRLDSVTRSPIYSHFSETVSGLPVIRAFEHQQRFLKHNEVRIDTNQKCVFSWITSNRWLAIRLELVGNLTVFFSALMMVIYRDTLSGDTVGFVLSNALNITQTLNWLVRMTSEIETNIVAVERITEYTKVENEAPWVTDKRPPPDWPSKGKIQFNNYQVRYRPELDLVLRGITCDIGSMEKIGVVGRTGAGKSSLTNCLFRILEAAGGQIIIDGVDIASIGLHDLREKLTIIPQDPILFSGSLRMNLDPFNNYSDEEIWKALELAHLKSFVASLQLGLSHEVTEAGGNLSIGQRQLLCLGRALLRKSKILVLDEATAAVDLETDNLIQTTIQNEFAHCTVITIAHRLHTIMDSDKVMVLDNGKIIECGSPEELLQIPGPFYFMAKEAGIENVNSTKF", "assay": "Loganin transport across Caco-2 monolayers with MRP2 inhibitor indomethacin", "type": "in vitro ADME", "parameters": "key to Modulatory effect: +: Indicates that the inhibitor has significant effect on the loganin transport", "description": "as §1, §2, §3, §4"}, "MRP2 [2]": {"test_system": "T2, MRP2", "T2 construct": "MRP2 and MRP3 were the main apically and basolaterally localized MRPs of the Caco-2 cells; endogenous in cells; host or cells: Caco-2 monolayers", "assay": "Loganin transport across Caco-2 monolayers with MRP2 inhibitor indomethacin", "type": "in vitro ADME, human", "parameters": "key to Modulatory effect: +: Indicates that the inhibitor has significant effect on the loganin transport", "conditions": "human, Caco-2, pH 7.4; with indomethacin 200 μM, loganin 20 μM, n = 3", "description": "as §1, §2, §3, §4"}, "MRP2, MRP3": {"test_system": "MRP2, MRP3", "assay": "Loganin transport across Caco-2 monolayers with MRP2/MRP3 inhibitor benzbromarone", "type": "in vitro ADME, human", "parameters": "key to Modulatory effect: +: Indicates that the inhibitor has significant effect on the loganin transport", "description": "as §1, §2, §3, §4"}, "BCRP [3]": {"target": "T3, BCRP (Homo sapiens, UniProt Q9UNQ0)", "T3 construct": "endogenous in cells; host or cells: Caco-2 monolayers", "T3 sequence (Q9UNQ0 1-655)": "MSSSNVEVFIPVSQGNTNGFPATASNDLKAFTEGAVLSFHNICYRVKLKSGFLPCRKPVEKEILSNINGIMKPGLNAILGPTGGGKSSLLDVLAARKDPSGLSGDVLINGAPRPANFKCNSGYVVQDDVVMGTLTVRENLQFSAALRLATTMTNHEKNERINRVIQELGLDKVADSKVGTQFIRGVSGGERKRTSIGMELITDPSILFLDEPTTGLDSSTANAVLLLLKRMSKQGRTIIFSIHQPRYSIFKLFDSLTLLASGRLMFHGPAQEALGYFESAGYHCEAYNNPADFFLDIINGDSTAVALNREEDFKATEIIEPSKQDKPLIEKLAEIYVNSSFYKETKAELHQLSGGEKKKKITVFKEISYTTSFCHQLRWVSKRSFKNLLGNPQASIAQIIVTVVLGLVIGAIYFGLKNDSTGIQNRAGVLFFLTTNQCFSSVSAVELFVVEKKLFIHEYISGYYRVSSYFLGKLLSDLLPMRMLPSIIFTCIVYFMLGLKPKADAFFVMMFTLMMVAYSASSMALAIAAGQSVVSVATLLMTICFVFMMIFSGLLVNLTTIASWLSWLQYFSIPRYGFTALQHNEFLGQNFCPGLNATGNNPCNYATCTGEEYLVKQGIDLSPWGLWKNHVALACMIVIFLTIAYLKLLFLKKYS", "assay": "Loganin transport across Caco-2 monolayers with BCRP inhibitor apigenin", "type": "in vitro ADME", "parameters": "key to Modulatory effect: +: Indicates that the inhibitor has significant effect on the loganin transport", "description": "as §1, §2, §3, §4"}, "BCRP [4]": {"test_system": "T4, BCRP", "T4 construct": "endogenous in cells; host or cells: Caco-2 monolayers", "assay": "Loganin transport across Caco-2 monolayers with BCRP inhibitor apigenin", "type": "in vitro ADME, human", "parameters": "key to Modulatory effect: +: Indicates that the inhibitor has significant effect on the loganin transport", "conditions": "human, Caco-2, pH 7.4; with apigenin 25 μM, loganin 20 μM, n = 3", "description": "as §1, §2, §3, §4"}, "Na+/K+ pump": {"test_system": "Na+/K+ pump", "assay": "Loganin transport across Caco-2 monolayers with Na+/K+ pump inhibitor sodium vanadate", "type": "in vitro ADME, human", "conditions": "human", "description": "as §1, §2, §3, §4"}, "Na^+/K^+pump": {"test_system": "Na^+/K^+pump", "assay": "Loganin transport across Caco-2 monolayers with Na+/K+ pump inhibitor sodium vanadate", "type": "in vitro ADME, human", "conditions": "pretreatment with 50 μM sodium vanadate", "description": "as §1, §2, §3, §4"}, "OATs": {"test_system": "OATs", "assay": "Loganin transport across Caco-2 monolayers with OATs inhibitor cimetidine", "type": "in vitro ADME, human", "description": "as §1, §2, §3, §4"}, "[5]": {"parameters": "method as in PMID 35540372", "conditions": "rats; cited from earlier work"}, "[6]": {"conditions": "stated as well known, no reference given; cited from earlier work"}, "[7]": {"conditions": "with 100 μM MK 571, 20 μM loganin"}, "[8]": {"conditions": "human, Caco-2, pH 7.4, with benzbromarone 50 μM, loganin 20 μM, n = 3"}, "[9]": {"conditions": "Caco-2, pH 7.4, with sodium vanadate 50 μM, loganin 20 μM, n = 3"}, "[10]": {"conditions": "human, Caco-2, pH 7.4, with cimetidine 50 μM, loganin 20 μM, n = 3"}}, "data": [{"molecule": "COC(=O)C1=CO[C@@H](O[C@@H]2O[C@H](CO)[C@@H](O)[C@H](O)[C@H]2O)[C@@H]2[C@@H](C)[C@@H](O)C[C@H]12", "note": "[loganin, Loganin]", "values": [{"measurement": "PappAB relative to control group", "setting": "MRPs; [7]", "result": "~2", "unit": "fold"}, {"measurement": "Reduction of PappBA vs control", "setting": "MRPs; [7]", "result": 66.7, "unit": "%"}, {"measurement": "Modulatory effect", "setting": "MRPs; with MK 571 100 μM", "result": "+"}, {"measurement": "efflux ratio at 120 min, 20 μM", "setting": "MRP2 [1]; human, Caco-2, pH 7.4, with indomethacin 200 μM, read-out: P (efflux ratio PappBA/PappAB)", "result": 0.18}, {"measurement": "Modulatory effect", "setting": "MRP2 [1]; with indomethacin 200 μM", "result": "+"}, {"measurement": "Increase of PappAB vs control", "setting": "MRP2 [1]; with indomethacin, p < 0.01", "result": 2.0, "unit": "fold"}, {"measurement": "Papp A→B at 120 min, 20 μM", "setting": "MRP2 [2]", "result": "24.7 ± 4.8", "unit": "×10⁻⁶ cm/s"}, {"measurement": "Papp B→A at 120 min, 20 μM", "setting": "MRP2 [2]", "result": "4.4 ± 1.1", "unit": "×10⁻⁶ cm/s"}, {"measurement": "efflux ratio at 120 min, 20 μM", "setting": "MRP2, MRP3; human, Caco-2, pH 7.4, with benzbromarone 50 μM, read-out: P (efflux ratio PappBA/PappAB)", "result": 0.23}, {"measurement": "Papp A→B at 120 min, 20 μM", "setting": "MRP2, MRP3; [8]", "result": "29.5 ± 5.9", "unit": "×10⁻⁶ cm/s"}, {"measurement": "Papp B→A at 120 min, 20 μM", "setting": "MRP2, MRP3; [8]", "result": "6.7 ± 0.9", "unit": "×10⁻⁶ cm/s"}, {"measurement": "Modulatory effect", "setting": "MRP2, MRP3; with benzbromarone 50 μM", "result": "+"}, {"measurement": "efflux ratio at 120 min", "setting": "BCRP [3]; human, Caco-2, pH 7.4, with apigenin 25 μM, read-out: P (efflux ratio PappBA/PappAB)", "result": 0.41}, {"measurement": "Substrate of BCRP (in words)", "setting": "BCRP [3]; judged from apigenin vs control", "result": "substrate"}, {"measurement": "Modulatory effect", "setting": "BCRP [3]; with apigenin 25 μM", "result": "+"}, {"measurement": "Papp A→B at 120 min, 20 μM", "setting": "BCRP [4]", "result": "30.1 ± 6.2", "unit": "×10⁻⁶ cm/s"}, {"measurement": "Papp B→A at 120 min, 20 μM", "setting": "BCRP [4]", "result": "12.3 ± 2.5", "unit": "×10⁻⁶ cm/s"}, {"measurement": "efflux ratio at 120 min, 20 μM", "setting": "Na+/K+ pump; Caco-2, pH 7.4, with sodium vanadate 50 μM, read-out: P (efflux ratio PappBA/PappAB)", "result": 0.73}, {"measurement": "Papp A→B at 120 min, 20 μM", "setting": "Na+/K+ pump; [9]", "result": "12.3 ± 0.7", "unit": "×10⁻⁶ cm/s"}, {"measurement": "Papp B→A at 120 min, 20 μM", "setting": "Na+/K+ pump; [9]", "result": "9 ± 1.1", "unit": "×10⁻⁶ cm/s"}, {"measurement": "Effect on Papp values (in words)", "setting": "Na^+/K^+pump", "result": "no significant effects"}, {"measurement": "efflux ratio at 120 min, 20 μM", "setting": "OATs; human, Caco-2, pH 7.4, with cimetidine 50 μM, read-out: P (efflux ratio PappBA/PappAB)", "result": 0.9}, {"measurement": "Papp A→B at 120 min, 20 μM", "setting": "OATs; [10]", "result": "11 ± 1.5", "unit": "×10⁻⁶ cm/s"}, {"measurement": "Papp B→A at 120 min, 20 μM", "setting": "OATs; [10]", "result": "9.9 ± 2", "unit": "×10⁻⁶ cm/s"}, {"measurement": "Effect on Papp values (in words)", "setting": "OATs; pretreatment with 50 μM cimetidine", "result": "no significant effects"}, {"measurement": "Oral bioavailability (in words)", "setting": "[5]", "result": "low"}, {"measurement": "Water solubility (in words)", "setting": "[6]", "result": "low"}]}]}
